# Patent US20100004165A1, “Novel Protein Transduction Domains and Uses Therefor” (The Arizona Board of Regents, a body corporate acting on …, priority 2005, published 2010)
# Square brackets hold non-standard residues; d marks the D form. Ends that are not written are not given here. * marks the point of attachment. FITC = O=C1OC2(c3ccc(O)cc3Oc3cc(O)ccc32)c2ccc(NC(=S)*)cc21; pS = N[C@@H](COP(=O)(O)O)C(=O)O; βAla = NCCC(=O)O
# What was measured:
# [1] = system: 3T3 fibroblasts; experiment: Transduction of FITC-labeled peptides into 3T3 fibroblasts (fluorescence imaging); assay type: cell-based; conditions: 50 μM, 1 hour, media with or without serum
# Experimental: FITC-(b)[…] (SEQ ID NO: 37)(WLRRIKA (SEQ ID NO: 3) monomer), FITC-(b)[…] (SEQ ID NO: 38)(WLRRIKA (SEQ ID NO: 3) dimer), and FITC-(b)[…] (SEQ ID NO: 39)(WLRRIKA (SEQ ID NO: 3) trimer) were synthesized on a 0.2 mmol scale using Fmoc-based solid phase peptide synthesis. The peptides were solubilized in water to create 3 mM stock solutions. 3T3 fibroblasts, cultured in Dulbecco's Modified Eagle Medium (DMEM) with 2 mM glutamine, pen/strep antibiotic, and 10% fetal bovine serum (FBS), were seeded at a density of 50,000 cells per well (1 ml of 50,000 cells/ml) in 4-well chambered slides (4 slides were used). The slides were incubated at 37° C. with 5% CO2 in a humidified incubator for 4 hours to allow the cells to adhere to the slides. After 4 hours, each well was washed 3 times with phosphate buffered saline (PBS). 50 μl of a 3 mM stock of each peptide as well as a 3 mM stock of fluorescein in water were added to 15 ml tubes containing 3 ml of DMEM with 2 mM glutamine, antibiotic, and 10% FBS and to 15 ml tubes containing 3 ml of serum-free DMEM with 2 mM glutamine and antibiotic. Treatments were performed in duplicate for both serum-containing and serum-free DMEM. On each slide system, each well received media (either with or without serum) with fluorescein, WLRRIKA (SEQ ID NO: 3) monomer, WLRRIKA (SEQ ID NO: 3) dimer, or WLRRIKA (SEQ ID NO: 3) trimer. In all cases, the final peptide or fluorescein concentration was 50 μM per well. Once the treatments were added, the slides were incubated at 37° C. with 5% CO2 in a humidified incubator for 1 hour. Then, each well was washed with PBS 3 times. Following the PBS wash, 0.2 ml trypsin was added to each well to digest residual peptide bound to the outer cellular membranes, and the slides were incubated at 37° C. for 10 minutes. To inactivate the trypsin, 1 ml DMEM with serum was added to each well, and the slides were incubated for 4 hours to allow cells to reattach to the slides. After 4 hours, the cells were washed 3 times in PBS, and 1 ml of DMEM with serum was added to each well. Then, the slides were imaged using a 40× objective. […]
# [2] = system: porcine ear skin; experiment: In vitro skin penetration and transdermal delivery, porcine ear skin in Franz diffusion cell, spectrofluorimetry (Example 3); conditions: up to 8 hours post-application
# Experimental: Fluorescence microscopy was used to visualize the peptides in different skin layers.
# Formulations: Except in the experiments involving chemical penetration enhancers, FITC-labeled peptides were dissolved in phosphate-buffered saline (PBS, 10 mM, pH 7.2); the peptide concentration was 100 μM. In the experiment involving penetration enhancers, PBS could not be used as a solvent because of the lipophilic nature of monoolein and oleic acid. Propylene glycol was used as a solvent, since it solubilizes both lipids and peptides. […] The formulations were prepared by mixing monoolein or oleic acid with propylene glycol and adding the peptides to the system immediately thereafter.
# Porcine ear skin was used as model skin for in vitro skin penetration studies because of its similarity with human skin, especially regarding histological and biochemical properties and permeability to drugs (33). Freshly excised porcine ears were obtained from a local abattoir. The skin from the outer surface of the ear was carefully dissected; making sure that the subcutaneous fat was maximally removed (34). Maximum care was taken to maintain the integrity of the skin, which was assured by histology. The cleaned porcine ear skin was immediately mounted in a Franz diffusion cell (diffusion area of 1 cm^2; Laboratory Glass Apparatus, Inc, Berkeley, Calif., USA), with the stratum corneum facing the donor compartment (where the formulation was applied) and the dermis facing the receptor compartment, which was filled with PBS (100 mM, pH 7.2, 3 mL). The receptor phase was maintained at 37° C. and under constant stirring. To achieve higher reproducibility, the skin samples were equilibrated to the diffusion cell conditions for 30 minutes before application of any formulation.
# PBS solutions or propylene glycol formulations of the peptides (70 μL each) were applied to the skin surface (donor compartment). […] The concentrations of FITC-P20 (SEQ ID NO: 9), FITC-YARA-P20 (SEQ ID NO: 42), and FITC-TAT-P20 (SEQ ID NO: 43) in the skin and receptor phase were determined at 0.5, 1, 2, 4, and 8 hour post-application.
# At the end of the experiment, skin surfaces were thoroughly washed with distilled water to remove excess formulation and carefully wiped with a tissue paper. To separate the stratum corneum (SC) from the remaining epidermis (E) and dermis (D), the skin was subjected to tape stripping. The skin was stripped with 15 pieces of adhesive tape (3M, St. Paul, Minn., USA), and the tapes containing the SC were immersed in 3 mL of a water:methanol (1:1 v/v) solution, vortexed for 2 min, and bath sonicated for 30 minutes. The remaining [E+D] was cut in small pieces, vortexed for 2 minutes in 2 mL of a water:methanol (1:1 v/v) solution, and homogenized using a tissue grinder for 1 minute and bath sonication for 30 minutes. The resulting mixture was centrifuged for 1 minute. The peptide present in the receptor phase was concentrated (10×) as follows. Samples (2 mL) of the receptor phase were lyophilized for 24 hours, and the residue was dissolved in 200 μL of a hidroalcoholic (20% of ethanol) solution.
# All solutions were subjected to fluorimetry analysis using a Gemini SpectraMax™ platereader (Molecular Devices, Sunnyvale, Calif., USA) with excitation at 495 nm and emission at 518 nm. […] To evaluate the recovery of the peptides from the skin in the extraction procedure, tissues sections (1 cm^2) were spiked with 20 μL of 0.2 and 0.5 mM solutions of the peptides. The skin sections were homogenized using a tissue grinder, vortex-mixer, and bath sonicator, as described above. […] We accounted for such a recovery percentage in the quantification of peptides.
# [3] = system: porcine ear skin; experiment: Fluorescence microscopy of skin sections after peptide application; conditions: 4 hours post-application
# Source text: The skin sections (8 μm) were mounted on glass slides. The slides were visualized without any additional staining or treatment through a 20× objective using a Zeiss microscope (Carl Zeiss, Thornwood, N.Y., USA) equipped with a filter for FITC and AxioVision software.
# [4] = system: connective tissue growth factor (CTGF); experiment: TGFβ1-induced CTGF expression in human keloid fibroblasts (immunoblot); assay type: cell-based; conditions: 24 hours; for reduction of CTGF expression compared to TGFβ1 treatment: 50 μM peptide
# Experimental: As a key marker of the anti-fibrotic activity of HSP20 peptides, we have previously examined expression levels of connective tissue growth factor (CTGF) in human keloid fibroblasts after stimulation with transforming growth factor beta 1 (TGFβ1). Cells were grown in 10 cm^2 dishes to 70% confluence in DMEM with 10% fetal bovine serum (FBS) and additional penicillin and streptomycin (1%), at 37° C. and 10% CO2. Cells were serum starved in DMEM containing 0.5% FBS for 48 hours before the experiment. Cells were either untreated (control) or treated with TGFβ1 (2.5 ng/mL) in the presence or absence of WL-P20 (SEQ ID NO: 10) phosphopeptide ([…]p[…], where pS is phosphoserine) (10 or 50 μM) for 24 hours. At the end of the experiment, cells were rinsed with PBS, and homogenized using urea-dithiothreitol-chaps (UDC) buffer. Lysates were mixed, centrifuged (6000×g) for 20 minutes, and the supernatant was used for determination of protein expression. Samples (20 μg of protein) were loaded on 15% SDS-PAGE gels, and the proteins were electrophoretically transferred to Immobilon membranes. Immunoblotting with CTGF antibodies was used in conjunction with near infrared detection antibodies to determine CTGF expression (Odyssey Li-Cor, Lincoln, Nebr.). Loading differences were corrected for by normalizing to GAPDH expression
# (§1) Human keloid fibroblasts were serum-starved in DMEM medium containing 0.5% FBS for 48 hours, and treated with 2.5 ng/mL of TGF-betal for 24 hours and concomitantly treated with the WL-20 (SEQ ID NO: 10) (10 or 50 μM) for 24 hours. The Western blot bands were quantified by densitometry, and CTGF and collagen expression were related to GAPDH expression to correct for loading differences. The expression of CTGF and collagen in control cells was set to 1 for comparison of different blots.
# [5] = system: primary rat astrocyte cells; experiment: Transduction across cell membranes in primary rat astrocyte cells; assay type: cell-based
# Experimental: The in vitro model used to assess transduction across cell membranes was primary rat astrocyte cells. Cells were isolated as described (Innocenti et. al., J. Neurosci. 20:1800-1808, 2000), seeded at ˜3×10^4 cells/cm^2, and cultured in full serum (10% FBS in α-MEM) overnight. Some cells were serum starved by culturing in 0.5% FBS for 1-24 hours prior to treatment with transduction peptides.
# [6] = system: porcine ear skin; experiment: Ex vivo skin transduction, porcine ear skin in modified Franz diffusion cell (Example 2); assay type: in vitro ADME; conditions: for skin penetration: 100 uM, conjugated or alone (FIG. 1, Panel C)
# Experimental: The ex vivo model selected for skin transduction studies was freshly excised porcine ears. […] The system was maintained at 37° C. and under constant stirring. […] The amount of peptides that permeated across the skin was determined in the receptor phase; 1.5 mL of the receptor phase was withdrawn, lyophilized and the residue was suspended in 150 μL of water. […] Standard curves of the peptides were used as reference.
# [7] = system: anal canal; conditions: 1 mM in K-Y Jelly, 4 hours
# Experimental: (§2) Peptide was applied to both the vagina and anal canal using an applicator and allowed to penetrate for 4 hours. Tissue was excised and embedded in frozen tissue embedding medium (HistoPrep) for cryosectioning. Sections were mounted in anti-fade reagent and examined using fluorescence microscopy (Zeiss Axiovert).
# [8] = system: vagina; conditions: 1 mM in K-Y Jelly, 4 hours
# Experimental: as §2
# [9] = system: Rat aorta; experiment: Vasorelaxation of rat aorta rings pre-contracted with KCl (muscle bath)
# Experimental: Rat aorta was isolated and dissected free from connective and fat tissue. Transverse rings, 3.0 mm in width, were cut and tied to silk suture. The tissue was suspended in a muscle bath containing a bicarbonate buffer (120 mM NaCl, 4.7 mM KCl, 1.0 mM MgSO4, 1.0 mM NaH2PO4, 10 mM glucose, 1.5 mM CaCl2, and 25 mM […], pH 7.4) and equilibrated with 95% O2/5% CO2 at 37° C. The rings were fixed at one end to a stainless steel wire and attached to a force transducer in muscle perfusion system (Radnotti). The rings were then progressively stretched, and the isometric force generated in response to 110 mM KCl (with equimolar replacement of NaCl in bicarbonate buffer) was determined until the consistent maximal force was produced. Agonists and peptide was added directly to the baths. Tissue that was pre-contracted with 110 mM potassium chloride (KCl) followed by 1.0 mM WL-P20 ([…]p[…], pS is phosphoserine) (SEQ ID NO: 10), where pS is phosphoserine) relaxed compared to untreated control (13% relaxation at 10 minutes, 50% relaxation at 30 minutes, and maximum 88% relaxation at ˜60 minutes, FIG. 4). Percent relaxation was calculated relative to maximum force generated with KCl. […] Such a difference may result from different mechanisms of penetration and/or intracellular localization.
# [10] = system: collagen; experiment: TGFβ1-induced collagen expression in human keloid fibroblasts (Western blot); assay type: cell-based; conditions: 10 or 50 μM, 24 hours
# Experimental: as §1
substance,measurement,setting,value
FITC-(b)AWLRRIKA ({FITC}-[βAla]WLRRIKA) [WLRRIKA monomer],fluorescence within the cells (ability to penetrate the cells),[1],not able to penetrate the cells
FITC-(b)AWLRRIKAWLRRIKA [WLRRIKA dimer],fluorescence within the cells (ability to penetrate the cells),[1],bright fluorescence within the cells
"WLRRApSAPLPGLK (WLRRA[pS]APLPGLK; also: FITC label) [P20, fragment of HSP20, cargo peptide, pS is phosphoserine]","permeation across the skin, in words",[2],did not permeate across the skin at all
same,localisation of fluorescence in skin layers,[3],fluorescence was found only in the SC
same,reduction of CTGF expression compared to TGFβ1 treatment,[4],30%
WLRRIKAWLRRApSAPLPGLK (WLRRIKAWLRRA[pS]APLPGLK) [WL-P20],time of maximal transduction,[5],approximately 20 minutes
same,transduction,[5]; 1 μM,no transduction
same,transduction,[5]; 25 μM,slightly reduced transduction
same,transduction,[5]; 50 μM,efficient transduction
same,skin penetration,[6],significantly enhanced
same,fluorescence in the anal canal,[7],only minimal fluorescence
same,mucosal penetration in the vagina,[8],Mucosal penetration in the vagina was achieved
same,time of maximum relaxation,[9],~60 min
same,maximum relaxation relative to maximum force generated with KCl,"[9]; 1.0 mM peptide, 110 mM KCl pre-contraction",88%
same,relaxation relative to maximum force generated with KCl,"[9]; 1.0 mM peptide, 110 mM KCl pre-contraction, at 10 minutes",13%
same,relaxation relative to maximum force generated with KCl,"[9]; 1.0 mM peptide, 110 mM KCl pre-contraction, at 30 minutes",50%
same,reduction of CTGF expression compared to TGFβ1 treatment,[4],46%
same,effect on TGFβ1-induced CTGF expression,[4]; 10 or 50 μM,inhibits
same,effect on TGFβ1-induced collagen expression,[10],inhibits
WLRRIKAWLRRIKAWLRRIKA [W3],fluorescence within the cells (ability to penetrate the cells),[1],bright fluorescence within the cells
same,transduction,[5]; 50 μM,efficient transduction
same,persistence of transduction,[5]; 50 μM for 1 h,at least 24 hours
same,carrying of non-covalently bound P20 across the skin,"[6]; 100 uM transduction domain, non-covalently bound (FIG. 1, Panel A)",did not carry P20
same,skin penetration,[6],significantly enhanced
same,skin penetration [E+D] of non-covalently bound P20,"[6]; 1 mM W3 used to carry P20 (FIG. 1, Panel B)",significant skin penetration
